Structures are written as SMILES.

The nature of this data set: Comparative stability: HPLC assay of samples stored in open vials. To be noted: for assay after storage: open vial; for Initial assay: before storage, HPLC assay. The class given is physicochemical. As for the experimental part: The assay was determined by use of UV-HPLC (e.g., Shimadzu Nexera X2 System) with an autosampler temperature set at 25° C. and a column temperature set at 50° C. Typically 1 μL of sample is injected and separation is obtained by use of a Phenomenex Gemini 5.0 μm 110 Å, 50×2.0 mm column using a flow of 1.5 mL/min. Samples are typically prepared by solubilization in acetonitrile/carbonate buffer pH10 1/1. A gradient method is used with solvent A consisting of Trizma base buffer 50 mM pH 9 (adjusted with HCl) and solvent B consisting of Acetonitrile+5% (v/v) Trizma base buffer 50 mM pH 9 (adjusted with HCl). Following gradient is typically used: […]

Consider `NS(=O)(=O)[N-]c1ncnc(OCCOc2ncc(Br)cn2)c1-c1ccc(Br)cc1.[Na+]` [COMPOUND in crystalline form 1, sodium (5-(4-bromophenyl)-6-(2-((5-bromopyrimidin-2-yl)oxy)ethoxy)pyrimidin-4-yl)(sulfamoyl)amide], for which the Initial assay is on record as 104.1%. Where the note is “40° C., 7 days, 11% RH”, the assay after storage stood at 104.4%. The compound also showed an assay after storage (40° C., 7 days, 75% RH) of 104.0%. Further, for the setting “60° C., 7 days, 11% RH”, the assay after storage is listed as 104.5%. Besides, the assay after storage (60° C., 7 days, 75% RH) is 102.6%. Besides, under “80° C., 3 days, 11% RH”, the assay after storage was found to be 103.4%. Under “80° C., 3 days, 75% RH”, this compound had an assay after storage of 72.4%. The “chemical stability in comparison to aprocitentan free acid form (in crystalline Form A)” value (under certain experimental conditions of Table 5) was “superior chemical stability”.

Regarding `NS(=O)(=O)Nc1ncnc(OCCOc2ncc(Br)cn2)c1-c1ccc(Br)cc1` [{5-(4-bromo-phenyl)-6-[2-(5-bromo-pyrimidin-2-yloxy)-ethoxy]-pyrimidin-4-yl}-sulfamide, reference compound], the Initial assay came to 96.9%. Also, the assay after storage (40° C., 7 days, 11% RH) amounted to 97.2%. The compound further displayed an assay after storage (40° C., 7 days, 75% RH) of 91.8%. For the same compound, where the note is “60° C., 7 days, 11% RH”, the assay after storage is 96.7%. Further, for the setting “60° C., 7 days, 75% RH”, the assay after storage was 93.7%. This compound had an assay after storage (80° C., 3 days, 11% RH) of 89.7%. Moreover, the assay after storage (80° C., 3 days, 75% RH) is listed as 0.3%.

The record behind these values is US20250340520A1, “CRYSTALLINE FORMS OF SODIUM (5-(4-BROMOPHENYL)-6-(2-((5-BROMOPYRIMIDIN-2-YL)OXY)ETHOXY)PYRIMIDIN-4-YL)(SULFAMOYL)AMIDE” (IDORSIA PHARMACEUTICALS LTD, priority 2022, published 2025).
